In the supplement of paper PMC8671470:
± gives the standard deviation of the averaged measurements.

Assays:
Details in all cases: 72 h
HL-60 [1] = assay: area under dose-response curve (viability, 1 nM-10 uM) (fraction (0-1)); higher = more sensitive
Procedure, shortened: (§1)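 HL-60 cells in RPMI 1640 with 10% FBS were rescreened against the full library on 384-well plates at five tenfold concentrations, 1–10,000 nM, in duplicate. Each screen was run with DMSO or 100 nM of one of three metabolic inhibitors, for 72 h at 37 °C, 5% CO2. Viability was read by CellTiter-Glo and normalised to DMSO and 10 μM proteasome-inhibitor wells. Where given, area under the curve came from four-parameter log-logistic fits (drc, PharmacoGx).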

MV4-11 [2] = system: MV4-11
Procedure, shortened: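 The IC50 was derived from log-logistic dose–response fitting. Each of fifteen myeloid leukaemia cell lines, seeded in RPMI 1640 within its linear growth range, was exposed in 384-well plates to five tenfold doses (1 to 10,000 nM) in duplicate for 72 h at 37 °C and 5% CO2. Luminescent ATP viability readings were normalised to vehicle and to a positive control at 10 µM before four-parameter curve fitting.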

HL-60 [3] = assay: cell viability (% survival relative to DMSO control); higher = less cytotoxic
Procedure, shortened: as §1

HEL = assay: cell viability (% survival relative to DMSO control, bortezomib = 0%); higher = less cytotoxic
Procedure, shortened: (§2)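 Reported values are percent survival from duplicate wells, averaged. Fifteen myeloid leukaemia cell lines were treated in 384-well plates with compounds at 1, 10, 100, 1000 or 10000 nM for 72 h at 37 °C in 5% CO2. Signals from CellTiter-Glo luminescence were scaled with vehicle as 100% and a 10 µM positive control as 0%.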

MV4-11 [4] = assay: as above
Procedure, shortened: as §2

BV-173 = assay: as above
Procedure, shortened: as §2

MOLM-13 = assay: as above
Procedure, shortened: as §2

KU-812 = assay: as above
Procedure, shortened: as §2

NOMO-1 = assay: as above
Procedure, shortened: as §2

KG-1 = assay: as above
Procedure, shortened: as §2

HL-60 [5] = assay: as above
Procedure, shortened: as §2

KCL-22 = assay: as above
Procedure, shortened: as §2

LAMA-84 = assay: as above
Procedure, shortened: as §2

THP-1 = assay: as above
Procedure, shortened: as §2

ML-2 = assay: as above
Procedure, shortened: as §2

SHI-1 = assay: as above
Procedure, shortened: as §2

Mono-Mac-6 = assay: as above
Procedure, shortened: as §2

K-562 = assay: as above
Procedure, shortened: as §2

Cc1ccccc1C(C(=O)NC1CCCCC1)N(C(=O)Cn1ccnc1C)c1cccc(F)c1 (stereo not given) [AGI-5198]
Details | area under dose-response curve, co-treatment: AZD3965 100 nM | area under dose-response curve, co-treatment: DMSO vehicle | area under dose-response curve, co-treatment: GSK2194069 100 nM | area under dose-response curve, co-treatment: pictilisib 100 nM | cell viability, 1 nM [%] | cell viability, 10 nM [%] | cell viability, 100 nM [%] | cell viability, 1000 nM [%] | cell viability, 10000 nM [%]
BV-173 | – | – | – | – | 88.3 | 103 | 107 | 104 | 95.2
HEL | – | – | – | – | 95.4 | 104 | 106 | 99.4 | 101
HL-60 [1] | < 0.0301 | < 0.0301 | < 0.0301 | < 0.0301 | – | – | – | – | –
HL-60 [5] | – | – | – | – | 107 | 106 | 99.5 | 102 | 116
K-562 | – | – | – | – | 98.5 | 101 | 103 | 96.5 | 104
KCL-22 | – | – | – | – | 101 | 114 | 132 | 111 | 104
KG-1 | – | – | – | – | 102 | 100 | 128 | 94.9 | 94.5
KU-812 | – | – | – | – | 97.7 | 105 | 109 | 92.1 | 103
LAMA-84 | – | – | – | – | 97.6 | 104 | 115 | 97.2 | 99.9
ML-2 | – | – | – | – | 96.8 | 106 | 122 | 103 | 95.1
MOLM-13 | – | – | – | – | 87 | 124 | 108 | 80 | 118
MV4-11 [4] | – | – | – | – | 94 | 102 | 91.5 | 91.4 | 115
Mono-Mac-6 | – | – | – | – | 92.8 | 107 | 100 | 104 | 99
NOMO-1 | – | – | – | – | 96 | 103 | 107 | 100 | 102
SHI-1 | – | – | – | – | 94.9 | 92.7 | 107 | 96.2 | 99.1
THP-1 | – | – | – | – | 96.9 | 100 | 107 | 101 | 100

Details | IC50 (cell viability) [µM]
MV4-11 [2] | > 10

cell viability [%], HL-60 [3]
Details | 0.001 µM | 0.01 µM | 0.1 µM | 1 µM | 10 µM
co-treatment: AZD3965 100 nM | 95.1 ± 5.2 | 98.5 ± 3.8 | 93.2 ± 6.7 | 91.8 ± 9.9 | 100.5 ± 0.15
co-treatment: DMSO vehicle | 98.5 ± 2.9 | 106 ± 3.2 | 104 ± 7.8 | 99.4 ± 1.1 | 95.7 ± 5.1
co-treatment: GSK2194069 100 nM | 103 ± 7.5 | 101 ± 5.5 | 88.5 ± 15 | 101 ± 1.5 | 106 ± 5.5
co-treatment: pictilisib 100 nM | 98.4 ± 13 | 114 ± 16 | 103 ± 3.8 | 102 ± 0.28 | 104 ± 26
